Test results published in patent publication US20050106213A1, “Resorption-controlled bone implants” (priority 2001, published 2005).

Key:
osteoclasts [1] = experiment: CAP cement rods or pastes doped with Bafilomycin A1 implanted in rat femur defects, histology; assay type: in vivo
Description: The calcium phosphate precursor powder consisted of an equimolar mixture of DCPA and TTCP sterilized by gamma irradiation (20 kGy). Deionized double distilled water was obtained from a Millipore Milli-RO 10 Plus and Mill-Q UF Plus systems (Bedford, Mass., USA) operated at 18 MΩ resistance. The liquid phase was a neutral sodium hydrogen phosphate solution at pH 7.4, which was sterilized by filtration through 0.22 μm filters (Millipore Corp., Bedford, Mass., USA).
(§1) Bafilomycin A1 was first dissolved in DMSO solution (other solutions that can be used are methanol and ethanol), and then dispersed in a neutral phosphate solution (pH 7.4) prepared from Na2HPO4 and NaH2PO4.
After Bafilomycin A1 was dispersed in the biphasic liquid phase, the liquid phase was added to one of the solid components of the CAP, dicalcium phosphate anhydrous (DCPA). The DCPA was dissolved in the liquid phase and left at room temperature for 2 min with continuous mixing.
Next, tetracalcium phosphate (TTCP) was gradually added to the first dissolved CAP component to produce a paste. The powder to liquid ratio (P/L) of the final CAP was 2.0 (wt/wt).
The pastes were either implanted or used for the preparation of rods. Cement rods (1.9 mm diameter×2.3 mm height) were shaped by allowing aliquots of packed CPC pastes to set in custom made Teflon® formers for 24 h at 37C and 100% humidity and subsequently for 48 h at room temperature.
Young male Wistar rats with an average body weight of 125-150 g were purchased from Charles River (QC, Canada), housed in light- and temperature-controlled rooms, and fed a standard diet. The maintenance and use of animals were in accordance with the Canadian Council of Animal Care Guidelines.
Bone defects were drilled in the mid-diaphysis of the femur. The holes were made using a low speed dental drill (2.3 mm in diameter) with copious saline irrigation. Pre-hardened CPC rods were placed into the holes using gentle pressure. Every rat received two implants, a control rod (paste) in one femur and a rod (paste) containing Bafilomycin A1 in another femur. The animals were observed daily throughout the implantation period.
After desired time in vivo, the animals were sacrificed, and the femurs were removed. The femurs were then exposed to a fixative solution for 48 h, decalcified in a 1:1 mixture of 45% formic acid and 20% sodium citrate, dehydrated and embedded in low-melting-point paraffin. Serial sections (6 μm thick) perpendicular to the long axis of the implant were obtained using a hard tissue Spencer 820 microtome. Sample sections were stained with hematoxylin-eosin (H&E) and Mason's trichrome stains. Representative sections were also tested for the presence of tartrate resistant acid phosphatase (TRAP) enzyme, characteristic of osteoclasts, to determine the identity of the cells at the material/bone interface.

osteoclasts [2] = experiment: Bafilomycin-doped CAP implant rods in ovariectomized aged rats (model of osteoporosis), histology; assay type: in vivo, rat; conditions: ovx aged Brown Norway rats, 75-100 μg per 500 mg CAP
Protocol: Performance of the bafilomycin-doped implant was also assessed in a model of osteoporosis which utilizes ovarectomized aged rats. Successful integration of osseous implants with host bone tissue can be adversely affected by pathological bone conditions such as osteoporosis, which result in osteopenia due to disturbance of the balance between bone resorption and bone formation processes. Therefore, systemic bone loss due to estrogen deficiency may also affect bone growth and maintenance around the implants. Although current attention has been focused in the art on systemic fracture prevention and development of new therapies aimed at conserving bone mass, little emphasis has been given to increasing osteointegration of implants in osteoporotic defect site.
The effects of ovariectomy on bone tissue formation and resorption of proton pump inhibitor (Bafilomycin A1)—modified resorbable CAP cement implants in comparison to the controls were studied.
Ten-month old ovariectomized (ovx) virgin Brown Norway rats with were purchased from the National Institute on Aging (Bethesda, Md., USA), housed individually in light- and temperature-controlled rooms, and fed a restricted diet (6 pellets/day). These animals were kept for additional four months following the ovariectomy. […]

osteoclasts [3] = experiment: Bafilomycin-doped CAP implant rods in young and non-ovx aged Brown Norway rats (comparison groups), histology; parameters: species or system rat; conditions: young control group and non-ovx aged group; observed even at 4 months in vivo
Description: Ten-month old ovariectomized (ovx) virgin Brown Norway rats with were purchased from the National Institute on Aging (Bethesda, Md., USA), housed individually in light- and temperature-controlled rooms, and fed a restricted diet (6 pellets/day). These animals were kept for additional four months following the ovariectomy. Non-ovx virgin Brown Norway rats of the same age as the experimental rats at the time of implantation (fourteen months) were used as a control group for the ovx animals. Young virgin female Brown Norway rats (three months old) were used as another comparison group to assess the implant integration and resorption. The maintenance and use of animals were in accordance with the Canadian Council of Animal Care Guidelines.
Production of the CAP implant doped with bafilomycin was performed as described above, i.e., resorbable CAP based on the TTCP and DCPA chemistry. Bafilomycin in concentration of 75-100 μg per 250 μL of liquid neutral phosphate phase per 500 mg of CAP was used.
The implants were allowed to set to form pre-hardened implant rods. The implants were retrieved at 10 days, 1 month, 2 months, and 4 months post-surgery.

[4] = Solubility of Bafilomycin A1 in solvent for liquid phase preparation; assay type: physicochemical; conditions: at 2.0×10^−3 M
Description: as §1

osteoclast proton pump = experiment: Calcibon cement rods doped with Panto IV implanted in femur of young Wistar rats, histology; assay type: in vivo, rat; conditions: 4 mg Panto IV per mL neutral phosphate solution per 500 mg Calcibon, 10 days
Protocol: Experiments with a commercially available proton pump inhibitor, sodium pantoprazole sold as Panto IV®, were performed in healthy young Wistar rats.
Although Panto IV is highly specific for the proton pumps of the parietal cells, it was hypothesized that it may non-specifically affect other proton pumps, including the osteoclast proton pump. A commercially available calcium phosphate material, Calcibon, was also used which is less resorbable than the previously used CAP to determine whether the strategy for stimulating local bone mass can be used with other materials.
The CAP material used was Calcibon provided by the Merck Biomaterials/Biomet company. The concentration used was 4 mg Panto IV per/mL of neutral phosphate solution per 500 mg of CAP powder used to prepare the cement. The cement doped with the PPI was then allowed to set, as described previously. The pre-set rods were implanted in young Wistar rats according to the same procedure as described previously.

Which “control of CAP cement resorption (dose range study outcome)” value (osteoclasts [1]; 1.61×10^−4 M Bafilomycin A1 in liquid phase (DMSO solvent), rat femur implant) does the source give for `CO/C1=C\C(C)=C\[C@@H](C)[C@@H](O)[C@@H](C)C/C(C)=C/C=C/[C@H](OC)[C@@H]([C@@H](C)[C@@H](O)[C@H](C)[C@@]2(O)C[C@@H](O)[C@H](C)[C@@H](C(C)C)O2)OC1=O` [Bafilomycin A1] here?
Its value is “found to work very well”.

What about the “amount of new bone surrounding the implant versus control cement” value (osteoclasts [1]; 1.61×10^−4 M, all specimens studied, young male Wistar rats) of the same compound?
The value was “consistently surrounded by more bone than the control cements”.

What about the “resorption rate of CAP cement in comparison to controls” value (osteoclasts [1]; 1.61×10^−4 M, histology, young male Wistar rats) of the same compound?
The value was “decreased the resorption rate”.

What about the “formation of osteoclastic cutting cones into the material” value (osteoclasts [1]; 1.61×10^−4 M, tissue/material interface) of the same compound?
The value was “did not form “cutting cones””.

And the “density of new bone surrounding the cement versus control” value (osteoclasts [1]; 1.61×10^−4 M, young male Wistar rats)?
Its value is “appeared to be denser than the bone around the controls”.

What about the “bone healing around the implant” value (osteoclasts [1]; highest concentration 2.0×10^−3 M Bafilomycin A1 in liquid phase (methanol solvent), rat femur implant) of the same compound?
The value was “the bone would not heal around the implant”.

What about the “response of CAP implanted as paste (resorption, new bone)” value (osteoclasts [1]; injectable paste, 14 days after implantation, rat femur) of the same compound?
The value was “showed the same response as that observed for the pre-set cements”.

What about the “histology / resorption of cement versus control” value (osteoclasts [1]; lowest concentration 1.61×10^−5 M Bafilomycin A1 in liquid phase (DMSO solvent), rat femur implant) of the same compound?
The value was “did not differ in histology”.

And the “resorption of implant in comparison to control material” value (osteoclasts [2]; throughout 4-month in vivo period)?
The value was “reduction of the resorption”.

And the “local bone mass around implant” value (osteoclasts [2]; up to 4 months)?
Its value is “increased local bone mass”.

And the “bone formation around the material doped with PPI (trend)” value (osteoclasts [3])?
The value was “increased bone formation”.

And the “resorption of the material doped with PPI (trend)” value (osteoclasts [3])?
The value was “reduced resorption”.

And the “solubility in DMSO” value [4]?
Its value is “solubility of Bafilomycin A1 in DMSO was exceeded”.

For `COc1ccnc(Cc2nc3cc(OC(F)F)ccc3[nH]2)c1OC` [Panto IV, 5-difluoromethoxy-2-[(3,4-dimethoxy-2-pyridinyl)methyl]-1H-benzimidazole], which “reparative bone mass surrounding the implant versus control” value (osteoclast proton pump) is on record?
The value was “surrounded by higher reparative bone mass than the control”.
